Tests used:
MCP-1 = MCP-1 expression induced by immune complexes in THP-1 cells (ELISA); type: cell-based, human; details: 100 μg/ml A-IgG
Protocol: Human monocytic THP-1 cells (3×10^6 cells/well) were cultured in plastic dishes in RPMI 1640 culture medium supplemented with penicillin (100 U/ml), streptomycin (100 μg/ml), gentamycin (50 μg/ml), glutamine (2 mM) and 2% heat-inactivated fetal calf serum. Cells were cultured in the presence of HTB (2 and 4 mM) or vehicle and were activated with 100 μg/ml immune complex aggregates (A-IgG). The production of soluble MCP-1 was determined by ELISA using a commercially available kit (R&D Systems Inc.; Minneapolis, Minn.). The detection limit of the system was 5 pg/ml.

[1] = Cell viability of U-937 cells (EZ4U); type: cell-based; details: human, U-937 histiocytic lymphoma cells, read-out: Percentage of cell viability
Protocol: (§1) Several cell lines obtained from the American Type Culture Collection (ATCC) were cultured at 37° C. and under a 5% CO2 atmosphere. Each cell line was grown in an appropriate culture medium and within the exponential phase (Table I).
(§2) For the cell viability studies 24-well plates were used, where 0.5×10^6 cells/ml (for 24-hour studies), 0.25×10^6 cells/ml (for 48-hour studies) or 0.125×10^6 cells/ml (for 72-hour studies) were incubated. Next, different concentrations of HTB (1-3 mM) were added and cells were incubated for different time periods (37° C., 5% CO2). After incubation, the supernatant from each well was extracted, and cells were washed with culture medium without fetal calf serum. Then, the supernatant was extracted and 200 μl culture medium without fetal calf serum were added to each well. In addition, 20 μl substrate were added to determine cell viability. This method is based on the ability of viable cells to transform the colourless substrate into a coloured substance that is excreted to the supernatant (EZ4U, Biomedica Gmbh.). After incubating cells for 1 hour at 37° C. and 5% CO2, 200 μl supernatant were collected and the absorbance was measured at 450 nm.
(§3) The absorbance was also determined at 620 nm as a measure of the existing non-specific value.

NF-κB = test: Activation of NF-κB induced by LPS in human PBMC (EMSA); type: cell-based; details: human PBMCs, HTB 1-3 mM, 1 hour, then LPS 10 μg/ml 10 minutes
Protocol: Mononuclear cells (PBMC) were obtained from blood of healthy donors from the Hospital de Sant Pau (Barcelona) who had not taken any antiinflammatory drug during a period of not less than 2 weeks before blood extraction. Starting from a volume of about 80 ml of heparinized human blood (10 U/ml), this was diluted (1:1) with PBS (pH 7.4; Dulbecco) without calcium, magnesium nor sodium bicarbonate.
15 ml of Ficoll solution (d=1.077 at 20° C.; Biochrom KG) were placed in 50-ml Falcon tubes. To this solution a volume of about 25 ml per tube of the blood previously diluted with PBS was carefully added and the tubes were then centrifuged at 1,200 g for 20 minutes. Mononuclear cells concentrate on a whitish interphase between the plasma and the Ficoll solution. This interphase was collected with a Pasteur pipette and was diluted 1:1 with PBS. It was then centrifuged at 300 g for 10 min. The resulting pellet was resuspended in 50 ml PBS and was again centrifuged at 200 g for 10 min, in order to remove platelet contamination. […]
Prior to the various treatments, cell viability was determined by the Trypan Blue exclusion assay. […]
After incubation, PBMCs were washed twice with PBS and the degree of activation (binding to DNA) of the transcription factor NF-κB was determined using the EMSA assay, described in detail in Example 1.

[2] = Cell viability of 1321N1 cells (EZ4U); type: cell-based; details: human, 1321N1 cells (astrocytoma), read-out: Percentage of cell viability
Protocol: as §1, §2, §3

COX-2 [3] = test: PGE2 production in rat exudate (carrageenan air pouch); type: in vivo; details: oral 3-30 mg/kg, 6 h
Protocol: (§4) Lewis rats (175-200 g) were used in this study. Rats were randomly distributed in groups of 5 animals. An, air pouch was produced by subcutaneous injection of 20 ml of sterile air into the intrascapular area of animals in each group. Every two days, 10 ml of air were injected again into the cavity to keep the space open. Seven days after the first injection of air, 2 ml of a 1% carrageenan solution was injected into the air pouch in all groups to produce an inflammatory reaction. Test compound was administered orally 30 min before carrageenan administration. The animals were killed 6 h later and the volume of exudate was measured. The type and number of cells present were determined using standard Wright-Giemsa staining and a Coulter Counter cell counter, respectively. The exudate was centrifuged at 400 g at 4° C. for 7 min and PGE2 concentration was determined by enzyme-immunoassay (Amershan-Biotrak RPN222). The cell pellet was resuspended in 2 ml cold 0.85% NaCl. To eliminate red cell contamination, cells were subjected to a selective cellular lysis by the addition of 6 ml cold water for 20 seconds. The isotonicity of the cellular suspension was restored by the addition of 2 ml 3.5% NaCl. […]

COX-2 [4] = test: COX-2 expression in rat inflammatory exudate cells (carrageenan air pouch); type: in vivo; details: oral 3-30 mg/kg, 6 h
Protocol: as §4

## O=C(O)c1ccc(C(F)(F)F)cc1O [HTB, 2-hydroxy-4-trifluoromethylbenzoic acid]
MCP-1; 2 mM
  inhibition of MCP-1 expression induced by immune complexes: complete inhibition
MCP-1; 4 mM
  inhibition of MCP-1 expression induced by immune complexes: complete inhibition
[1]; 1 mM HTB, 0 hours
  viability at 0 h, 1 mM: 100%
[1]; 1 mM HTB, 2 hours
  viability at 2 h, 1 mM: 100%
[1]; 1 mM HTB, 5 hours
  viability at 5 h, 1 mM: 98.8%
[1]; 1 mM HTB, 24 hours
  viability at 24 h, 1 mM: 74.4%
[1]; 1 mM HTB, 48 hours
  viability at 48 h, 1 mM: 39.6%
[1]; 1 mM HTB, 72 hours
  viability at 72 h, 1 mM: 4.8%
[1]; 3 mM HTB, 0 hours
  viability at 0 h, 3 mM: 100%
[1]; 3 mM HTB, 2 hours
  viability at 2 h, 3 mM: 96.1%
[1]; 3 mM HTB, 5 hours
  viability at 5 h, 3 mM: 92.6%
[1]; 3 mM HTB, 24 hours
  viability at 24 h, 3 mM: 13.9%
[1]; 3 mM HTB, 48 hours
  viability at 48 h, 3 mM: 7.5%
NF-κB
  inhibition of the activation of NF-κB induced by LPS: markedly inhibits
[2]; 1 mM HTB, 0 hours
  viability at 0 h, 1 mM: 100%
[2]; 1 mM HTB, 2 hours
  viability at 2 h, 1 mM: 99.7%
[2]; 1 mM HTB, 5 hours
  viability at 5 h, 1 mM: 94.2%
[2]; 1 mM HTB, 24 hours
  viability at 24 h, 1 mM: 87.5%
[2]; 3 mM HTB, 0 hours
  viability at 0 h, 3 mM: 100%
[2]; 3 mM HTB, 2 hours
  viability at 2 h, 3 mM: 85.3%
[2]; 3 mM HTB, 5 hours
  viability at 5 h, 3 mM: 67.2%
[2]; 3 mM HTB, 24 hours
  viability at 24 h, 3 mM: 62.2%
[2]; 3 mM HTB, 48 hours
  viability at 48 h, 3 mM: 17.8%

## CC(=O)Oc1cc(C(F)(F)F)ccc1C(=O)O [triflusal, 2-Acetyloxy-4-trifluoromethylbenzoic acid, reference compound]
COX-2 [3]
  inhibition of PGE2 production in the exudate: dose-dependently inhibits
COX-2 [4]
  inhibition of COX-2 expression in the cells present in the exudate: dose-dependently inhibits

From patent US6509377B1, “Use of a 2-hydroxy-4-trifluoromethylbenzoic acid derivatives as inhibitors of the activation of the nuclear transcription factor NF-κB” (J. Uriach & Cia, S.A., priority 1999, dated 2003)
